Measurements reported in US4783462A, “3(2H)pyridazinone, and anti-allergic agent containing it” (Nissan Chemical Industries Ltd., priority 1985, dated 1988).

Assays:
LTD4 [1] = test: LTD4 antagonism in isolated guinea-pig trachea, Test method (i) (Table 4, values with asterisk); format: cell-based; conditions: Cavia porcellus, 5 min, test compound 10^-6 g/ml, 5 min prior
Protocol: (§1) (i) LTC4 and LTD4 antagonisms in guinea-pig trachea
(§2) Antagonisms for LTC4 and LTD4 were determined in isolated guinea-pig trachea prepared as spiral strip. Tracheal preparations were suspended under 1 g tension in 10 ml organ baths and they were incubated for 1 hr prior to use. Contractile responses to LTC4 (2×10^-8 g/ml) and LTD4 (2×10^-8 g/ml) were obtained after the maximal response to histamine (10^-4 M). Test compounds dissolved in 100% dimethyl sulfoxide were added to the organ baths (final concentration of 10^-5 g/ml or 10^-6 g/ml) 5 min prior to LTC4 and LTD4 addition, and then contractile responses to LTC4 and LTD4 were compared with those of control which was obtained from a paired trachea in the absence of test compounds. LTC4 - and LTD4 -induced contractions were expressed as a percentage of the maximal response to histamine. The antagonism was determined as follows:
(§3) Antagonism (%)=(1.0-% contraction in test/% contraction in […]

LTC4 [2] = test: Antagonism in isolated guinea-pig trachea, Test method (i) (Table 3, given as LTC4 antagonism); format: cell-based; conditions: 5 min, test compound 10^-5 g/ml, given as LTC4 antagonisms; for inhibition at 10 µg/mL: Cavia porcellus
Method in brief: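 Spiral strips of guinea-pig trachea under 1 g tension, contracted by LTC4 (2×10^-8 g/ml) after maximal histamine (10^-4 M) response. Compounds added at 10^-5 or 10^-6 g/ml final 5 min beforehand; contraction expressed as % histamine maximum and antagonism % calculated against paired untreated trachea.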

ddY strain male mice [3] = test: Acute toxicity test, Test method-(2), intraperitoneal; format: in vivo; conditions: 7 days
Protocol: The lethal ratio was determined in ddY strain male mice (4 weeks old) at 7 days after the intraperitoneal injection of test compounds.

[4] = system: anaphylactic bronchoconstriction in passively sensitized guinea-pig; test: Effect on anaphylactic bronchoconstriction in passively sensitized guinea-pig; format: in vivo; conditions: 2 mg/kg i.v.
Protocol: (iii) Effect on anaphylactic bronchoconstriction in passively sensitized guinea-pig
Male guinea-pigs (350-450 g) were passively sensitized with intravenous (i.v.) injection of 0.125 ml rabbit anti-EA (egg albumin) serum (Cappel Laboratories) 1 day preceding the experiment. […] Sensitized guinea-pigs were anaesthetized with intraperitoneal injection of urethane (1.5 g/kg). The right jugular vein was cannulated for the administration of the all agents and trachea was cannulated to record total pulmonary resistance. Guinea-pigs were artificially ventilated by a small animal respirator (Shinano, Model SN-480-7) set at a stroke volume of 5 ml and a rate of 50 breaths per min. […] The increase in air overflow volume was expressed as a percentage of the maximum bronchoconstriction obtained by clamping off the trachea. Following surgical preparation, the animals were pretreated with indomethacin (1.0 mg/kg, 10 min), pyrilamine (2 mg/kg, 6 min) and propranolol (0.1 mg/kg, 5 min) prior to the EA challenge (0.1 or 10 mg/kg). All test compounds, 2 mg/kg in 3% Tween 80 or 3% PEG-400, were administered 1 min before the EA challenge. Inhibition (%) of bronchoconstriction was determined as follows: Inhibition (%)=(1.0%-maximum bronchoconstriction in test/% maximum bronchoconstriction in control)×100. The maximum bronchoconstriction was obtained within 20 min after the EA challenge.
In the Table, the dose of EA was 10 mg/kg, and each compound was dissolved or suspended in 3% Tween 80.
The dose of EA was 0.1 mg/kg.

LTC4 [5] = test: LTC4 antagonism in isolated guinea-pig trachea, Test method (i) (Table 2); format: cell-based; conditions: Cavia porcellus, 5 min; LTC4 2×10^-8 g/ml; test compound 10^-5 g/ml; read-out: Antagonism (%)
Protocol: as §1, §2, §3

ddY strain male mice [6] = test: Acute toxicity test, Test method-(1), oral; format: in vivo; conditions: 7 days
Protocol: The lethal ratio was determined in ddY strain male mice (4 weeks old) at 7 days after the oral administation of test compounds.

LTD4 [7] = test: LTD4 antagonism in isolated guinea-pig trachea with indomethacin, Test method (ii) (Table 4); format: cell-based; conditions: Cavia porcellus, 0.5 h, LTD4 2×10^-8 g/ml, test compound 10^-6 g/ml, 30 min prior, 5 μmol indomethacin
Protocol: (ii) LTD4 antagonism in guinea-pig trachea
Antagonism for LTD4 was determined in isolated guinea-pig trachea prepared as spiral strip. Tracheal preparations were suspended under 1 g tension in 10 ml organ baths containing 5 μmol of indomethacin and they were incuated for 1 hr prior to use. Contractile responses to LTD4 (2×10^-8 g/ml) were obtained after the maximal response to histamine (10^-4 M). Test compounds dissolved in 100% dimethyl sulfoxide were added to the organ baths (final concentration of 10^-6 g/ml) 30 min prior to LTD4 addition, and then contractile responses to LTD4 were compared with those of control which was obtained from a paired trachea in the absence of test compounds. LTD4 -induced contractions were expressed as a percentage of the maximal response to histamine. The antagonism was determined as follows:
as §3

[8] = Table 5-(1), EA 10 mg/kg, 3% Tween 80
[9] = Table 5-(2), EA 0.1 mg/kg, Tween 80
[10] = Table 5-(2), EA 0.1 mg/kg, PEG-400

Compound	inhibition at 1 µg/mL (LTD4 [1])	inhibition at 10 µg/mL (LTC4 [2])	other results
CCCc1cc(C(=O)OC)ccc1OCCCNc1cn[nH]c(=O)c1CCC [compound 131]	33%		
CCCCc1cc(C(=O)O)ccc1OCCCNc1cnn(C(C)C)c(=O)c1Cl [Compound No. 112, 4-chloro-5-[3-(2-n-butyl-4-carboxyphenoxy)propylamino]-2-i-propyl-3(2H) pyridazinone]	62%	100%	
CCCc1cc(C(=O)OC)ccc1OCCCNc1cnn(CC)c(=O)c1CCC [compound 133]	27%		
CCCc1cc(C(=O)O)ccc1OCCCNc1cnn(CC)c(=O)c1Cl [Compound No. 7, 4-Chloro-5-[3-(2-n-propyl-4-carboxyphenoxy)propylamino]-2-ethyl-3(2H)pyridazinone]		82%	Lethal ratio (Death number/Experimental number) (ddY strain male mice [3]; 200 mg/kg intraperitoneal): 0/2; Lethal ratio (Death number/Experimental number) (ddY strain male mice [3]; 400 mg/kg intraperitoneal): 0/1; Inhibition (%) [4, 8]: 31%; inhibition at 10 µg/mL (LTC4 [5]): 95%
CCCc1cc(C#N)ccc1OCC(CNc1cnn(C(C)C)c(=O)c1Cl)OC (stereo not shown) [Compound No. 158, 4-Chloro-5-[3-(2-n-propyl-4-cyanophenoxy)-2-methoxypropylamino]-2-i-propyl-3(2H)pyridazinone]	53%	93%	
C=CCc1cc(C#N)ccc1OCCCNc1cnn(CC)c(=O)c1Cl [compound 80]	59%	98%	Lethal ratio (ddY strain male mice [6]; 400 mg/kg oral): 0/2; Lethal ratio (ddY strain male mice [6]; 800 mg/kg oral): 0/2
CCCc1cc(OC)ccc1OCCCNc1cnn(CC)c(=O)c1Cl [Compound No. 82, 4-chloro-5-[3-(2-n-propyl-4-methoxyphenoxy)propylamino]-2-ethyl-3(2H)pyridazinone]		100%	Lethal ratio (ddY strain male mice [6]; 400 mg/kg oral): 0/2; Lethal ratio (ddY strain male mice [6]; 800 mg/kg oral): 0/2
CCCc1c(OCCCOc2cnn(C(C)(C)C)c(=O)c2Cl)ccc2c(=O)cc(C(=O)OCC)oc12 [compound 23]		31%	inhibition at 10 µg/mL (LTC4 [5]): 27%
C=CCc1cc(C#N)ccc1OCCCNc1cnn(C(C)C)c(=O)c1Cl [compound 69]	66%	99%	Inhibition (%) [4, 9]: 51%
CCc1cc(C=O)ccc1OCCCNc1cnn(C(C)C)c(=O)c1Cl [compound 94]		98%	Lethal ratio (ddY strain male mice [6]; 400 mg/kg oral): 0/2; Lethal ratio (ddY strain male mice [6]; 800 mg/kg oral): 0/2
CCCc1cc(C(N)=O)ccc1OCCCNc1cnn(C(C)C)c(=O)c1Cl [Compound No. 42, 4-Chloro-5-[3-(2-n-propyl-4-carbamoylphenoxy)propylamino]-2-i-propyl-3(2H)pyridazinone]		95%	Lethal ratio (Death number/Experimental number) (ddY strain male mice [3]; 200 mg/kg intraperitoneal): 0/2; Lethal ratio (Death number/Experimental number) (ddY strain male mice [3]; 400 mg/kg intraperitoneal): 0/1; Inhibition (%) [4, 10]: 31%; inhibition at 1 µg/mL (LTD4 [7]): 76%
CCn1ncc(NCCc2ccc(OC)cc2)c(Cl)c1=O [Compound No. 20, 4-Chloro-5-[2-(4-methoxyphenyl)ethylamino]-2-ethyl-3(2H)pyridazinone]		80%	inhibition at 10 µg/mL (LTC4 [5]): 73%
CCCc1cc(C#N)ccc1OCCCNc1cnn(CC)c(=O)c1Br [compound 116]	82%	90%	
CCCc1cc(C#N)ccc1OCCCNc1cnn(C(C)C)c(=O)c1Br [compound 120]	82%		
CCCc1cc(C(=O)O)ccc1OCCCNc1cnn(C(C)C)c(=O)c1Cl [Compound No. 41, 4-chloro-5-[3-(2-n-propyl-4-carboxyphenoxy)propylamino]-2-i-propyl-3(2H)pyridazinone]			Lethal ratio (Death number/Experimental number) (ddY strain male mice [3]; 200 mg/kg intraperitoneal): 0/2; Antagonism (%) (LTC4 [2]): 100%; Inhibition (%) [4, 9]: 31%; inhibition at 1 µg/mL (LTD4 [7]): 82%
C=CCc1cc(C#N)ccc1OCCCNc1cnn(CC)c(=O)c1Br [Compound No. 117]	67%	98%	
CCCc1cc(C(=O)OC)ccc1OCCCNc1cnn(CC)c(=O)c1Br [compound 118]	69%	91%	
CCCCc1cc(C(=O)O)ccc1OCCCNc1cnn(C(C)C)c(=O)c1Br [Compound No. 127]	91%		
CCc1cc(C(=O)OC)ccc1OCCCNc1cnn(C(C)C)c(=O)c1Cl [compound 101]		92%	Lethal ratio (ddY strain male mice [6]; 400 mg/kg oral): 0/2; Lethal ratio (ddY strain male mice [6]; 800 mg/kg oral): 0/2; Inhibition (%) [4, 10]: 51%
CCCCc1cc(C(N)=O)ccc1OCCCNc1cnn(C(C)C)c(=O)c1Cl [Compound No. 114, 4-Chloro-5-[3-(2-n-butyl-4-carbamoylphenoxy)propylamino]-2-i-propyl-3-(2H)pyridazinone]	66%	89%	
CCCc1cc(C(=O)OC)ccc1OCCCNc1cnn(CC)c(=O)c1Cl [Compound No. 6, 4-Chloro-5-[3-(2-n-propyl-4-methoxycarbonylphenoxy)propylamino]-2-ethyl-3(2H)pyridazinone]	78%	96%	Inhibition (%) [4, 10]: 44%
CCCc1c(OCCCOc2cnn(CC)c(=O)c2Cl)ccc2c(=O)cc(C(=O)OCC)oc12 [compound 25]		24%	Inhibition (%) [4, 8]: 18%; inhibition at 10 µg/mL (LTC4 [5]): 53%
CCCc1cc(C#N)ccc1OCCCNc1cnn(CC)c(=O)c1Cl [compound 47]		99%	Lethal ratio (Death number/Experimental number) (ddY strain male mice [3]; 200 mg/kg intraperitoneal): 0/2; Lethal ratio (Death number/Experimental number) (ddY strain male mice [3]; 400 mg/kg intraperitoneal): 0/2; Inhibition (%) [4, 8]: 28%
CCCc1cc(C(=O)O)ccc1OCCCNc1cn[nH]c(=O)c1CCC [compound 132]	26%		
C=CCc1cc(C#N)ccc1OCCCNc1cnn(C(C)C)c(=O)c1Br [compound 123]	65%		
CCCc1cc(C#N)ccc1OCCCNc1cnn(C(C)(C)C)c(=O)c1CCC [compound 128]	17%		
Cc1ccccc1OCCCNc1cnn(C(C)C)c(=O)c1Cl [compound 72]		85%	Lethal ratio (ddY strain male mice [6]; 400 mg/kg oral): 0/2
CCCc1cc(C(N)=O)ccc1OCCCNc1cnn(CC)c(=O)c1Br [compound 121]	43%		
